Patent publication US9782368B2, “Use of N,N-bis-2-mercaptoethyl isophthalamide” (EMERAMED LIMITED, priority 2014, dated 2017)
Where two headings read alike, the source gives them in different places.

How the values were obtained:
[1] = Ascorbate depletion assay, 9,10-PQ-sponsored oxidation, recycling of DHA; details: 9,10-PQ model, 200 μM added at 60 minutes
Protocol: The kinetics of ascorbate oxidation, sponsored by both 1 μM 9,10-PQ and 2 μM copper sulphate (CuSO4), was examined using the ascorbate depletion assay (Kelly et al, Res. Rep. Health Eff. Inst., 163, 3 (2011). 9,10-PQ was employed so that the action of NBMI could be examined in isolation of its chelation properties.
All experiments were performed in triplicate in UV 96 well flat-bottomed plates (Greiner bio-one) at a final volume of 200 μL. Exposures were initiated by the addition of 20 μL of a concentrated stock of ascorbate (2 mM) into each well containing 160 μL of Chelex-100 resin treated water (containing 10% DMSO), plus either 10 μL of water, CuSO4 stock solution at 4 mM or 9,10-PQ stock solution at 2 mM, and 10 μL of NMBI (4 mM and […]).
All solutions were prepared in Chelex-100 resin treated water (containing 10% DMSO). This yielded final concentrations in the wells of […], 2 μM CuSO4, or 1 μM 9,10-PQ and between 10 and 200 μM of NBMI.
Immediately prior to the addition of the ascorbate to each assay well, the plate was pre-incubated for 10 minutes at 37° C. in a plate reader (Spectra Max 190). During the exposure, the plate was maintained at this temperature. After addition of ascorbate, the concentration remaining in each well was monitored every 2 minutes for a period of two hours by measuring the absorbance at 265 nm. The ascorbate concentration was determined with reference to a standard curve, with the rate of ascorbate oxidation determined by performing a linear regression through the initial part of a concentration verses time plot using Microcal Software Limited's OriginLab (version 5.0). This was performed for each of the triplicates and the rate of ascorbate depletion was finally expressed as mean mol s 1×10^−9 depletion of ascorbate±standard deviation.
For the experiments in which the impact of adding NBMI to the ascorbate was measured, CuSO4 and 9,10-PQ depletion assays were examined later in the time course. The plates were ran with 190 μL only for the first 55-60 minutes, after which they were removed from the plate reader and 10 μL of either the NMBI or the known reducing agent, DTT stock solution, or water was added to each well. The plate was then returned to the plate reader and the absorbance at 265 nm monitored for a further 60 minutes.
The immediate increase in the measured ascorbate concentrations was determined and is referred to as the ‘jump’, as a measure of immediate recycling capacity. The sustained ‘increase’ over the remaining 60 minutes of the incubation was also determined.

[2] = tested on: cigarette smoke (CS)-induced airway disease; assay type: in vivo, BALB/c mice; details: for weight gained compared to start weight: CS-exposed
Protocol: The 14 day dose-finding study was therefore followed by a 90 day study using essentially the same apparatus and protocol described in Example 4 above. On this occasion, the 5 treatment groups were as follows: • 1. Daily exposure to clean air (Placebo Group; Gr. 1) • 2. Daily exposure to CS (CS-Exposed Placebo Group; Gr. 2) • 3. Daily exposure to CS; treated with NBMI at a 30 mg/kg dose (NBMI 30 mg/kg Group; Gr. 3) • 4. Daily exposure to CS; treated with NBMI at a 60 mg/kg dose (NBMI 60 mg/kg Group; Gr. 4) • 5. Daily exposure to CS; treated with NBMI at a 150 mg/kg dose (NBMI 150 mg/kg Group; Gr. 5) On Day 91, animals were weighed and anesthetised with pentobarbital sodium (90 mg/kg body weight, i.p.). Mice were tracheotomised with an 18-gauge cannula and mechanically ventilated in a quasi-sinusoidal fashion with a small animal ventilator (flexiVent™, SCIREQ®) at a frequency of 3 Hz and a tidal volume (VT) of 12 ml/kg body weight. A positive end-expiratory pressure of 3 cm H2O was applied. The animal's cardiac output was monitored throughout the respiratory mechanics assessment. Mice were paralysed with pancuronium (0.1 mg/kg body weight, i.p. (local suppliers)) before 4 sigh manoeuvres at 3×VT were performed at the beginning of the experiment to establish stable baseline respiratory mechanics and to ensure a similar volume history before the experiment. Dynamic lung mechanics were measured by applying a sinusoidal standardised breath and analysed using the single compartment model and multiple linear regression, giving respiratory resistance (RRS), elastance (ERS) and compliance (CRS). The measurement of RRS reflects both narrowing of the conducting airways and alterations in the lung. The measurement of CRS and ERS reflects only events in the lung periphery, particularly airway closure leading to lung unit de-recruitment. By contrast, a selective change in CRS is indicative of a more distal site of action. More thorough evaluations of lung mechanics were made using forced oscillation technique (FOT) according to Jonasson et al., Respir. Res., 9, 23 (2008) and Respir. Physiol. Neurobiol., 165, 229 (2009). The parameters obtained from the FOT measurements in this study were: Newtonian resistance (RN), tissue damping (G), which is closely related to tissue resistance and reflects energy dissipation in the lung tissues; and tissue elastance (H), which characterises tissue stiffness and reflects energy storage in the tissues. Dynamic pressure-volume (PV) curves were determined by inflating the lungs to a maximum pressure of 30 cm H2O, allowing passive exhalation using the computer-controlled Flexivent ventilator for measuring volume and pressure. Individual results from each animal were compiled. All PV-measurements were performed in triplicate. Quasi-static PV loops were obtained by a slow stepwise inflation and deflation of the lungs. PV loops were performed for PEEP-levels, 3 cm H2O. The shape factor (k) of the descending limb of the PV loop was calculated by fitting the data to the Salazar-Knowles equation. The value of the parameter k is believed to change characteristically with both fibrosis and emphysema. The quasi-static compliance (Cst) and elastance (Est) and the volume air inspired sufficient to reach 20 cm water were also obtained. Bronchoalveolar lavage (BAL) was carried out essentially as described in Example 4 above, as was flow cytometry analysis of cells from BAL and analysis of inflammatory mediators in BAL and serum. Frozen lung tissue was homogenised together with 1 mL PBS in a 2 mL tube, using a mixer mill (Retch mm400) for 2 minutes at 4° C. Immediately after homogenisation, the tube was centrifuged for 15 minutes (1500 rpm, 4° C.). The supernatant was removed and saved for protein concentration determination using a NanoDrop spectrophotometer (Proteins A280). After analysing the protein content, equal amounts of protein from each sample were saved for the transforming growth factor beta (TGFβ) 1-3 analysis. […]

With `O=C(NCCS)c1cccc(C(=O)NCCS)c1` [NBMI, N,N-bis-2-mercaptoethyl isophthalamide] the “immediate rebound increase in ascorbate” value [1] was 42.8 µM, the “rate of ascorbate oxidation after addition” value [1] was “reduced relative to the first 60 minute period” and the “respiratory function (PV-curves) vs placebo group Gr. 2” value ([2]; 30, 60 and 150 mg/kg) was “did not display significantly changed respiratory function”. For the same compound, the “macrophages in BAL fluid” value ([2]; 30, 60 and 150 mg/kg, Day 90) was “did not have significantly lower numbers of macrophages”, the “weight gained compared to start weight” value ([2]; Day 90, Gr. 3, 30 mg/kg) was 1.0 ± 0.4 g and the “weight gained compared to start weight” value ([2]; Day 90, Gr. 4, 60 mg/kg) was 0.7 ± 0.2 g. For the same compound, the “weight gained compared to start weight” value ([2]; Day 90, Gr. 5, 150 mg/kg) was 0.6 ± 0.2 g, the “percentage of T helper (CD4+/CD3+) and T cytotoxic (CD8+/CD3+) lymphocytes in BAL fluid” value ([2]; FACS, NBMI-treated groups) was “not significant altered” and the “neutrophils in BAL fluid” value ([2]; Gr. 4, 60 mg/kg) was “tendency to a lower number of neutrophils”. The “neutrophils in BAL fluid” value ([2]; Gr. 5, 150 mg/kg) was “tendency to a lower number of neutrophils”, the “GM-CSF level in serum vs Gr. 2” value ([2]; Gr. 5, 150 mg/kg, p<0.01) was “lowered” and the “MIP-1β level in serum vs Gr. 2” value ([2]; Gr. 5, 150 mg/kg, p<0.05) was “lowered”. The “T cytotoxic (CD8+/CD3+) lymphocytes in BAL fluid vs Gr. 2” value ([2]; NBMI-treated animals) was “significant decrease”, the “lymphocytes in BAL fluid (tendency)” value ([2]; all NBMI-treated groups) was “a lower number of lymphocytes” and the “TGFβ1-3 in lung homogenate vs Gr. 2” value ([2]; animals receiving NBMI) was “did not have significantly changed amount”.
